Patent EP4722201A1, “3-PHENYLISOXAZOLINE-5-CARBOXAMIDE COMPOUND, AND PREPARATION METHOD THEREFOR, HERBICIDAL COMPOSITION THEREOF AND USE THEREOF” (Jiangsu Flag Chemical Industry Co., Ltd, priority 2023, dated 2024)

Legend:
Assay in all cases: Indoor herbicide activity determination, Seed Treatment; pre-emergence (soil spray)
Type in all cases: in vivo
Aegilops tauschii = conditions: 120 g a.i./ha, read-out: Herbicidal activities (inhibition rate) Aegilops tauschii
Summary of the method: (§1)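 Pre-emergence soil spray; sandy soil pH 6.1, OM 1%, 7 cm pots; seeds covered, wetted from below, 24 h incubation under light at constant temperature; spray tower, 300 mm height, 390 mL/min nozzle flow; readout = % fresh-weight inhibition vs control at 21 d.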

Cyperus iria = conditions: 120 g a.i./ha, read-out: Herbicidal activities (inhibition rate) Cyperus iria
Summary of the method: as §1

Alopecurus myosuroides = conditions: Dosage 240 g a.i./ha
Summary of the method: as §1

Digitaria sanguinalis = conditions: 120 g a.i./ha, read-out: Herbicidal activities (inhibition rate) Digitaria sanguinalis
Summary of the method: as §1

Alopecurus japonicus = conditions: Dosage 240 g a.i./ha
Summary of the method: as §1

Eclipta prostrata = conditions: 120 g a.i./ha, read-out: Herbicidal activities (inhibition rate) Eclipta prostrata
Summary of the method: as §1

Eleusine indica = conditions: Dosage 240 g a.i./ha
Summary of the method: as §1

Lolium multiflorum = conditions: Dosage 240 g a.i./ha
Summary of the method: as §1

Leptochloa chinensis = conditions: Dosage 240 g a.i./ha
Summary of the method: as §1

| SMILES | inhibition at 120 g/ha (Aegilops tauschii) [%] | inhibition at 120 g/ha (Cyperus iria) [%] | Herbicidal activity (inhibition rate class), Alopecurus myosuroides (Alopecurus myosuroides) | inhibition at 120 g/ha (Digitaria sanguinalis) [%] | Herbicidal activity (inhibition rate class), Alopecurus japonicus (Alopecurus japonicus) | inhibition at 120 g/ha (Eclipta prostrata) [%] | Herbicidal activity (inhibition rate class), Eleusine indica (Eleusine indica) | Herbicidal activity (inhibition rate class), Lolium multiflorum (Lolium multiflorum) | Herbicidal activity (inhibition rate class), Leptochloa chinensis (Leptochloa chinensis) |
| --- | --- | --- | --- | --- | --- | --- | --- | --- | --- |
| CC1(C(=O)N[C@H]2C=C[C@@H](C(=O)O)C2)CC(c2cc(F)cc(OC(F)(F)F)c2)=NO1 (stereo partly drawn) [I-488] | 80 to 100 | 80 to 100 | A (A indicates that the inhibition rate was greater than or equal to 80% to 100%) | 60 to 80 | A (A indicates that the inhibition rate was greater than or equal to 80% to 100%) | 80 to 100 | A (A indicates that the inhibition rate was greater than or equal to 80% to 100%) | A (A indicates that the inhibition rate was greater than or equal to 80% to 100%) | A (A indicates that the inhibition rate was greater than or equal to 80% to 100%) |
| CSCCOC(=O)[C@@H]1C=C[C@H](NC(=O)C2(C)CC(c3cc(F)cc(OC(F)(F)F)c3)=NO2)C1 (stereo partly drawn) [I-490] | 80 to 100 | 80 to 100 | A (A indicates that the inhibition rate was greater than or equal to 80% to 100%) | 80 to 100 | A (A indicates that the inhibition rate was greater than or equal to 80% to 100%) | 80 to 100 | A (A indicates that the inhibition rate was greater than or equal to 80% to 100%) | A (A indicates that the inhibition rate was greater than or equal to 80% to 100%) | A (A indicates that the inhibition rate was greater than or equal to 80% to 100%) |
| COC(=O)[C@@H]1C=C[C@H](NC(=O)C2(C)CC(c3cc(Cl)cc(OC(F)(F)F)c3)=NO2)C1 (stereo partly drawn) [I-486] | 80 to 100 | 80 to 100 | A (A indicates that the inhibition rate was greater than or equal to 80% to 100%) | 60 to 80 | A (A indicates that the inhibition rate was greater than or equal to 80% to 100%) | 80 to 100 | A (A indicates that the inhibition rate was greater than or equal to 80% to 100%) | A (A indicates that the inhibition rate was greater than or equal to 80% to 100%) | A (A indicates that the inhibition rate was greater than or equal to 80% to 100%) |
| CC1(C(=O)N[C@H]2C=C[C@@H](C(=O)O)C2)CC(c2cc(F)cc(C(F)(F)F)c2)=NO1 (stereo partly drawn) [I-493] | 80 to 100 | 80 to 100 | A (A indicates that the inhibition rate was greater than or equal to 80% to 100%) | 60 to 80 | A (A indicates that the inhibition rate was greater than or equal to 80% to 100%) | 60 to 80 | A (A indicates that the inhibition rate was greater than or equal to 80% to 100%) | A (A indicates that the inhibition rate was greater than or equal to 80% to 100%) | A (A indicates that the inhibition rate was greater than or equal to 80% to 100%) |
